Assay results: ChEMBL document CHEMBL1149262, “Monoamine transporter binding, locomotor activity, and drug discrimination properties of 3-(4-substituted-phenyl)tropane-2-carboxylic acid methyl ester isomers” (J Med Chem, 2004)
The source made the active and inactive calls. No cut-off for these calls is given here.

Experiments:
Mus musculus [1] = experiment: Activity in CD1 mouse assessed as slight or intermittent hyperactivity at 1 mg/kg, ip after 4 hrs; assay type: functional, organism-based; parameters: dose 1 mg/kg
Mus musculus [2] = experiment: Locomotor activity in CD1 mouse assessed as stimulation at 3 mg/kg, ip after 2 hrs relative to control; assay type: functional; settings: route intraperitoneal
Mus musculus [3] = experiment: Locomotor activity in CD1 mouse assessed as stimulation at 3 mg/kg, ip after 4 hrs relative to control; assay type: functional; settings: route intraperitoneal
Mus musculus [4] = experiment: Activity in CD1 mouse assessed as stereotypy at 100 mg/kg, ip after 4 hrs; assay type: functional, organism-based; parameters: dose 100 mg/kg
Mus musculus [5] = experiment: Activity in CD1 mouse assessed as slight or intermittent stereotypy at 1 mg/kg, ip after 4 hrs; assay type: functional, organism-based; parameters: dose 1 mg/kg
Mus musculus [6] = experiment: Locomotor activity in CD1 mouse assessed as stimulation at 3 mg/kg, ip after 3 hrs relative to control; assay type: functional; settings: route intraperitoneal
Mus musculus [7] = experiment: Locomotor activity in CD1 mouse assessed as stimulation at 10 mg/kg, ip after 3 hrs relative to control; assay type: functional; settings: route intraperitoneal
Mus musculus [8] = experiment: Locomotor activity in CD1 mouse assessed as stimulation at 0.3 mg/kg, ip after 4 hrs relative to control; assay type: functional; settings: route intraperitoneal
[9] = target: Sodium-dependent serotonin transporter (Homo sapiens, UniProt P31645)
Description: Displacement of [3H]paroxetine from 5HTT

Mus musculus [10] = experiment: Activity in CD1 mouse assessed as stereotypy at 10 mg/kg, ip after 4 hrs; assay type: functional, organism-based; parameters: dose 10 mg/kg
Rattus norvegicus [11] = experiment: Cocaine discrimination in ip dosed CD Albino rat; assay type: functional
Mus musculus [12] = experiment: Locomotor activity in CD1 mouse assessed as stimulation at 1 mg/kg, ip after 4 hrs relative to control; assay type: functional; settings: route intraperitoneal
Mus musculus [13] = experiment: Locomotor activity in CD1 mouse assessed as stimulation at 10 mg/kg, ip after 4 hrs relative to control; assay type: functional; settings: route intraperitoneal
Mus musculus [14] = experiment: Activity in CD1 mouse assessed as straub tail at 100 mg/kg, ip after 4 hrs; assay type: functional, organism-based; parameters: dose 100 mg/kg
Mus musculus [15] = experiment: Locomotor activity in CD1 mouse assessed as stimulation at 10 mg/kg, ip after 1 hr relative to control; assay type: functional; settings: route intraperitoneal
Mus musculus [16] = experiment: Locomotor activity in CD1 mouse assessed as stimulation at 10 mg/kg, ip after 2 hrs relative to control; assay type: functional; settings: route intraperitoneal
Mus musculus [17] = experiment: Locomotor activity in CD1 mouse assessed as stimulation at 0.3 mg/kg, ip after 1 hr relative to control; assay type: functional; settings: route intraperitoneal
Mus musculus [18] = experiment: Activity in CD1 mouse assessed as convulsions at 100 mg/kg, ip after 4 hrs; assay type: functional, organism-based; parameters: dose 100 mg/kg
Rattus norvegicus [19] = experiment: Drug discrimination effect in CD Albino rat assessed as percent of rat choosing cocaine lever at 0.17 mg/kg, ip; assay type: functional; settings: route intraperitoneal
Mus musculus [20] = experiment: Locomotor activity in CD1 mouse assessed as stimulation at 3 mg/kg, ip after 1 hr relative to control; assay type: functional; settings: route intraperitoneal
Rattus norvegicus [21] = experiment: Drug discrimination effect in CD Albino rat assessed as percent of rat choosing cocaine lever at 0.3 mg/kg, ip; assay type: functional; settings: route intraperitoneal
[22] = target: Sodium-dependent noradrenaline transporter (Homo sapiens, UniProt P23975); experiment: Displacement of [3H]nisoxetine from NET
Mus musculus [23] = experiment: Locomotor activity in CD1 mouse assessed as stimulation at 0.3 mg/kg, ip after 2 hrs relative to control; assay type: functional; settings: route intraperitoneal
Rattus norvegicus [24] = experiment: Drug discrimination effect in CD Albino rat assessed as percent of rat choosing cocaine lever at 1 mg/kg, ip; assay type: functional; settings: route intraperitoneal
Rattus norvegicus [25] = experiment: Drug discrimination effect in CD Albino rat assessed as percent of rat choosing cocaine lever at 0.56 mg/kg, ip; assay type: functional; settings: route intraperitoneal
Mus musculus [26] = experiment: Activity in CD1 mouse assessed as hyperactivity at 10 mg/kg, ip after 4 hrs; assay type: functional, organism-based; parameters: dose 10 mg/kg
Mus musculus [27] = experiment: Locomotor activity in CD1 mouse assessed as stimulation at 0.3 mg/kg, ip after 3 hrs relative to control; assay type: functional; settings: route intraperitoneal
Mus musculus [28] = experiment: Locomotor activity in CD1 mouse assessed as stimulation at 1 mg/kg, ip after 2 hrs relative to control; assay type: functional; settings: route intraperitoneal
Mus musculus [29] = experiment: Locomotor activity in CD1 mouse assessed as stimulation at 1 mg/kg, ip after 3 hrs relative to control; assay type: functional; settings: route intraperitoneal
Mus musculus [30] = experiment: Locomotor activity in ip dosed CD1 mouse in peak hour; assay type: functional
Mus musculus [31] = experiment: Locomotor activity in CD1 mouse assessed as stimulation at 1 mg/kg, ip after 1 hr relative to control; assay type: functional; settings: route intraperitoneal
Mus musculus [32] = experiment: Locomotor activity in CD1 mouse assessed as stimulation at 30 mg/kg, ip after 3 hrs relative to control; assay type: functional; settings: route intraperitoneal
Mus musculus [33] = experiment: Locomotor activity in CD1 mouse assessed as stimulation at 30 mg/kg, ip after 2 hrs relative to control; assay type: functional; settings: route intraperitoneal
[34] = target: Sodium-dependent dopamine transporter (Homo sapiens, UniProt Q01959); experiment: Displacement of [3H]WIN-35428 from DAT
Rattus norvegicus [35] = experiment: Drug discrimination effect in CD Albino rat assessed as percent of rat choosing cocaine lever at 5.6 mg/kg, ip; assay type: functional; settings: route intraperitoneal
Mus musculus [36] = experiment: Activity in CD1 mouse assessed as death at 100 mg/kg, ip after 4 hrs; assay type: functional, organism-based; parameters: dose 100 mg/kg
Mus musculus [37] = experiment: Locomotor activity in CD1 mouse assessed as stimulation at 30 mg/kg, ip after 4 hrs relative to control; assay type: functional; settings: route intraperitoneal
Rattus norvegicus [38] = experiment: Drug discrimination effect in CD Albino rat assessed as percent of rat choosing cocaine lever at 3 mg/kg, ip; assay type: functional; settings: route intraperitoneal
Rattus norvegicus [39] = experiment: Drug discrimination effect in CD Albino rat assessed as percent of rat choosing cocaine lever at 10 mg/kg, ip; assay type: functional; settings: route intraperitoneal
Mus musculus [40] = experiment: Activity in CD1 mouse assessed as hind limb splay at 100 mg/kg, ip after 4 hrs; assay type: functional, organism-based; parameters: dose 100 mg/kg; settings: Hindlimb
Mus musculus [41] = experiment: Locomotor activity in CD1 mouse assessed as stimulation at 30 mg/kg, ip after 1 hr relative to control; assay type: functional; settings: route intraperitoneal
Mus musculus [42] = experiment: Activity in CD1 mouse assessed as flattened body posture at 100 mg/kg, ip after 4 hrs; assay type: functional, organism-based; parameters: dose 100 mg/kg
Mus musculus [43] = experiment: Activity in CD1 mouse assessed as ptosis at 100 mg/kg, ip after 4 hrs; assay type: functional, organism-based; parameters: dose 100 mg/kg
Mus musculus [44] = experiment: Activity in CD1 mouse assessed as circling at 100 mg/kg, ip after 4 hrs; assay type: functional, organism-based; parameters: dose 100 mg/kg
Mus musculus [45] = experiment: Activity in CD1 mouse assessed as ataxia at 100 mg/kg, ip after 4 hrs; assay type: functional, organism-based; parameters: dose 100 mg/kg
Mus musculus [46] = experiment: Activity in CD1 mouse assessed as tremor at 100 mg/kg, ip after 4 hrs; assay type: functional, organism-based; parameters: dose 100 mg/kg
Mus musculus [47] = experiment: Activity in CD1 mouse assessed as stimulation at 10 mg/kg, ip after 4 hrs; assay type: functional, organism-based; parameters: dose 10 mg/kg
Mus musculus [48] = experiment: Activity in CD1 mouse assessed as hyperactivity at 100 mg/kg, ip after 4 hrs; assay type: functional, organism-based; parameters: dose 100 mg/kg
Mus musculus [49] = experiment: Locomotor activity in CD1 mouse assessed as stimulation at 100 mg/kg, ip after 2 hrs relative to control; assay type: functional; settings: route intraperitoneal
Mus musculus [50] = experiment: Locomotor activity in CD1 mouse assessed as stimulation at 100 mg/kg, ip after 1 hr relative to control; assay type: functional; settings: route intraperitoneal
Mus musculus [51] = experiment: Activity in CD1 mouse assessed as slight or intermittent hyperactivity at 10 mg/kg, ip after 4 hrs; assay type: functional, organism-based; parameters: dose 10 mg/kg
Mus musculus [52] = experiment: Locomotor activity in CD1 mouse assessed as stimulation at 100 mg/kg, ip after 4 hrs relative to control; assay type: functional; settings: route intraperitoneal
Rattus norvegicus [53] = experiment: Drug discrimination effect in CD Albino rat assessed as percent of rat choosing cocaine lever at 17 mg/kg, ip; assay type: functional; settings: route intraperitoneal
Rattus norvegicus [54] = experiment: Drug discrimination effect in CD Albino rat assessed as percent of rat choosing cocaine lever at 30 mg/kg, ip; assay type: functional; settings: route intraperitoneal
Mus musculus [55] = experiment: Locomotor activity in CD1 mouse assessed as stimulation at 100 mg/kg, ip after 3 hrs relative to control; assay type: functional; settings: route intraperitoneal
Rattus norvegicus [56] = experiment: Drug discrimination effect in CD Albino rat assessed as percent of rat choosing cocaine lever at 1.7 mg/kg, ip; assay type: functional; settings: route intraperitoneal

Sodium-dependent dopamine transporter, sequence (Q01959 whole entry): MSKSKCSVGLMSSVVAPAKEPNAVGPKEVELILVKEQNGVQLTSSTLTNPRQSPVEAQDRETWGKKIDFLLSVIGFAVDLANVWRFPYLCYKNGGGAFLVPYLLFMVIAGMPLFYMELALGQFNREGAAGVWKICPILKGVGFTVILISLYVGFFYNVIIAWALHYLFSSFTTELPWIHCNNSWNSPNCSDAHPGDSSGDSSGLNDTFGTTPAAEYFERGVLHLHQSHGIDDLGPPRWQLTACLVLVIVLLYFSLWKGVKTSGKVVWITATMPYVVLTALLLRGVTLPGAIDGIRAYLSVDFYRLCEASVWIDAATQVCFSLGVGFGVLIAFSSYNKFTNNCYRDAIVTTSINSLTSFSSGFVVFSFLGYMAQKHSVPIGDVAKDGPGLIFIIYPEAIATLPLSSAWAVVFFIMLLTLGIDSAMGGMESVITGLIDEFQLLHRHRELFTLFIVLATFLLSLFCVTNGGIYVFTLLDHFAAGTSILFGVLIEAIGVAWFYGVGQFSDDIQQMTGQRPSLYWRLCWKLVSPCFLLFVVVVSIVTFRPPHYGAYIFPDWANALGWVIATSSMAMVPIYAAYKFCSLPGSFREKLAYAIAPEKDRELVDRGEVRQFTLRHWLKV
Sodium-dependent noradrenaline transporter, sequence (P23975 whole entry): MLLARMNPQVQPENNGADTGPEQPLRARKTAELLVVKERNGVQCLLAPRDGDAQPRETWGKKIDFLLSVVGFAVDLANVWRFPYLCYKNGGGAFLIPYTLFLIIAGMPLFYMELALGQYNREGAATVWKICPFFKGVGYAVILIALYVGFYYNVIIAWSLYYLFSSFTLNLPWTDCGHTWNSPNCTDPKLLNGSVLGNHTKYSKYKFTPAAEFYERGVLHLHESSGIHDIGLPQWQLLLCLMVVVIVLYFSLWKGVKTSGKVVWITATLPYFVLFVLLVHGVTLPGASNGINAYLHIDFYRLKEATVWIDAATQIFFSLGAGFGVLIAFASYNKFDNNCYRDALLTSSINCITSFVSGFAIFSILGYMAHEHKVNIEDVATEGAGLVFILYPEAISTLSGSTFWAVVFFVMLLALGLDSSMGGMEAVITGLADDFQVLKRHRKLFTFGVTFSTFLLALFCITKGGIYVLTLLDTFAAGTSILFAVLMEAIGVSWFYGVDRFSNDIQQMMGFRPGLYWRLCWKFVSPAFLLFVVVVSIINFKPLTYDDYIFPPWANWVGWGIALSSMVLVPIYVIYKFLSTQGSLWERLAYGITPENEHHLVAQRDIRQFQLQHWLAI
Sodium-dependent serotonin transporter, sequence (P31645 whole entry): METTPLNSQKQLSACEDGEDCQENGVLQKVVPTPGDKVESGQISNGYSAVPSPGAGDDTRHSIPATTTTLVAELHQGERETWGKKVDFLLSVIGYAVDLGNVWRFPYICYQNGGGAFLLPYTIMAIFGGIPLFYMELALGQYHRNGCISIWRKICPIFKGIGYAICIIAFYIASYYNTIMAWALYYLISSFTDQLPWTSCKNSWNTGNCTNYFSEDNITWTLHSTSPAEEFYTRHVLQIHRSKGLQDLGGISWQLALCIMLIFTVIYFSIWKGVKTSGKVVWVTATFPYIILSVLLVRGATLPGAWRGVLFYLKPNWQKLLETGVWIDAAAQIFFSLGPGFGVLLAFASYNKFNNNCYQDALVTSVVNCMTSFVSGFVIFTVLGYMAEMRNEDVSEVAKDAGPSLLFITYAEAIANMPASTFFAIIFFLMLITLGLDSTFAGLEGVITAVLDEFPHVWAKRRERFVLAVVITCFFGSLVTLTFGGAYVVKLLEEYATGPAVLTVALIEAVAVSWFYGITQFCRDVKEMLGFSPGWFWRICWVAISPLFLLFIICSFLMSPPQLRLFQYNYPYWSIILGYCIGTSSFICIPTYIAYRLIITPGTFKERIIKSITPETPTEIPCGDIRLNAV

Structure (SMILES)	Activity (Mus musculus [2]) [%]	Activity (Mus musculus [3]) [%]	Activity (Mus musculus [4])	Activity (Mus musculus [6]) [%]	Activity (Mus musculus [7]) [%]	ED50 (Rattus norvegicus [11]) [mg/kg]	Activity (Mus musculus [12]) [%]	Activity (Mus musculus [13]) [%]	Activity (Mus musculus [15]) [%]	Activity (Mus musculus [16]) [%]	Activity (Mus musculus [18])	Activity (Mus musculus [20]) [%]	Ki [22] [nM]	Activity (Rattus norvegicus [24]) [%]	Activity (Mus musculus [28]) [%]	Activity (Mus musculus [29]) [%]	ED50 (Mus musculus [30]) [mg/kg]	Activity (Mus musculus [31]) [%]	Activity (Mus musculus [32]) [%]	Activity (Mus musculus [33]) [%]	also measured
COC(=O)[C@H]1[C@@H](c2ccc(F)cc2)C[C@H]2CC[C@H]1N2C	558	140	Active	199	594	0.29	-29	739	330	220	Active	633	503	100	232	28	0.7	333	–	–	Activity (Mus musculus [1]): Active; Activity (Mus musculus [5]): Active; Activity (Mus musculus [8]): -47%; IC50 [9]: 692 nM; Ki [9]: 63 nM; Activity (Mus musculus [10]): Active; Activity (Mus musculus [14]): Active; Activity (Mus musculus [17]): 5%; Activity (Rattus norvegicus [19]): 0%; Activity (Rattus norvegicus [21]): 57%; Activity (Mus musculus [23]): -33%; Activity (Rattus norvegicus [25]): 86%; Activity (Mus musculus [26]): Active; Activity (Mus musculus [27]): -66%
COC(=O)[C@H]1[C@H]2CCC(C[C@H]1c1ccc(C)cc1)N2C	132	56	–	47	120	–	-51	-36	8	96	Active	6	1930	13	110	118	–	-15	78	-36	IC50 [34]: 23.4 nM; Activity (Rattus norvegicus [35]): 13%; Activity (Mus musculus [36]): Active; Activity (Mus musculus [37]): -35%; Activity (Rattus norvegicus [38]): 0%; Activity (Rattus norvegicus [39]): 0%; Activity (Mus musculus [40]): Active; IC50 [22]: 3850 nM; Activity (Mus musculus [41]): -57%; Activity (Mus musculus [42]): Active; Activity (Mus musculus [43]): Active
COC(=O)[C@H]1C2CCC(C[C@@H]1c1ccc(Cl)cc1)N2C (some centres not stated)	188	15	Active	92	1275	4.07	62	667	248	1003	Active	68	–	–	50	83	4.3	15	911	493	IC50 [34]: 25 nM; Activity (Rattus norvegicus [35]): 88%; Activity (Mus musculus [36]): Active; Activity (Mus musculus [37]): 794%; Activity (Mus musculus [14]): Active; Activity (Mus musculus [44]): Active; Activity (Rattus norvegicus [38]): 13%; Activity (Mus musculus [45]): Active; Activity (Rattus norvegicus [39]): 67%; Activity (Mus musculus [41]): 154%; Activity (Mus musculus [46]): Active; Activity (Mus musculus [47]): Active
COC(=O)[C@@H]1C2CCC(C[C@H]1c1ccc(C)cc1)N2C (some centres not stated)	29	-41	Active	-6	108	7.73	–	22	294	149	–	28	160	0	–	–	14.7	–	5	147	Activity (Mus musculus [48]): Active; Activity (Mus musculus [49]): 436%; IC50 [34]: 10.2 nM; Activity (Rattus norvegicus [35]): 43%; Activity (Mus musculus [50]): 843%; Activity (Mus musculus [37]): -66%; Activity (Mus musculus [51]): Active; Activity (Mus musculus [52]): 18%; Activity (Mus musculus [44]): Active; Activity (Rattus norvegicus [38]): 29%; Activity (Rattus norvegicus [53]): 75%; Activity (Rattus norvegicus [39]): 43%; Activity (Rattus norvegicus [54]): 100%; IC50 [22]: 270 nM; Activity (Mus musculus [41]): 482%; Activity (Mus musculus [55]): 263%; Activity (Rattus norvegicus [56]): 14%
